Assay results: ChEMBL document CHEMBL5346903, “Discovery of novel and bioavailable histone deacetylases and cyclin-dependent kinases dual inhibitor to impair the stemness of leukemia cells” (Eur J Med Chem, 2023)
pIC50: −log10 of the molar value.

What was measured:
[1] = biological target: Cyclin-dependent kinase 9 (Homo sapiens, UniProt P50750); test: Inhibition of CDK9 (unknown origin) preincubated for 20 mins followed by [gamma-33P]ATP addition measured after 120 mins in presence of ATP by Hot-SpotSM kinase assay
Histone deacetylase = test: Inhibition of HDAC in human nuclear extract using Ac-Arg-Gly-Lys(Ac)-AMC as substrate incubated overnight by fluorescence based assay; type: subcellular, Nucleus; conditions: hela
U-937 = test: Antiproliferative activity against human U-937 cells incubated for 72 hrs by CCK8 assay; type: functional, cell-based; conditions: U-937, 72 h
HL-60 = test: Antiproliferative activity against human HL-60 cells incubated for 72 hrs by CCK8 assay; type: functional, cell-based; conditions: HL-60, 72 h
[2] = Antiproliferative activity against human SKNO-1 cells incubated for 72 hrs by CCK8 assay; type: functional, cell-based; conditions: SKNO-1, 72 h
Kasumi 1 [3] = test: Antiproliferative activity against human Kasumi 1 cells incubated for 72 hrs by CCK8 assay; type: functional, cell-based; conditions: Kasumi 1, 72 h
Kasumi 1 [4] = test: Synergistic antiproliferative activity against human Kasumi 1 cells assessed as combination index incubated for 72 hrs in presence of Chidamide by CCK-8 assay; type: functional
[5] = biological target: CDK1/Cyclin A (Homo sapiens) (UniProt P06493+P20248); test: Inhibition of CDK1/cyclinA2 (unknown origin) at 100 nM preincubated for 20 mins followed by [gamma-33P]ATP addition measured after 120 mins in presence of ATP by Hot-SpotSM kinase assay relative to control; type: protein-complex assay; conditions: time 140.0 min
[6] = biological target: Cyclin-dependent kinase 1/cyclin B1 (Homo sapiens) (UniProt P06493+P14635); test: Inhibition of CDK1/cyclinB1 (unknown origin) at 100 nM preincubated for 20 mins followed by [gamma-33P]ATP addition measured after 120 mins in presence of ATP by Hot-SpotSM kinase assay relative to control; type: protein-complex assay; conditions: time 140.0 min
[7] = biological target: CDK1/Cyclin E (Homo sapiens) (UniProt P06493+P24864); test: Inhibition of CDK1/cyclinE1 (unknown origin) at 100 nM preincubated for 20 mins followed by [gamma-33P]ATP addition measured after 120 mins in presence of ATP by Hot-SpotSM kinase assay relative to control; type: protein-complex assay; conditions: time 140.0 min
[8] = biological target: CDK3/Cyclin E (Homo sapiens) (UniProt P24864+Q00526); test: Inhibition of CDK3/cyclinE1 (unknown origin) at 100 nM preincubated for 20 mins followed by [gamma-33P]ATP addition measured after 120 mins in presence of ATP by Hot-SpotSM kinase assay relative to control; type: protein-complex assay; conditions: time 140.0 min
[9] = biological target: Cyclin-dependent kinase 4/cyclin D1 (Homo sapiens) (UniProt P11802+P24385); test: Inhibition of CDK4/cyclinD1 (unknown origin) at 100 nM preincubated for 20 mins followed by [gamma-33P]ATP addition measured after 120 mins in presence of ATP by Hot-SpotSM kinase assay relative to control; type: protein-complex assay; conditions: time 140.0 min
[10] = biological target: CDK4/Cyclin D3 (Homo sapiens) (UniProt P11802+P30281); test: Inhibition of CDK4/cyclinD3 (unknown origin) at 100 nM preincubated for 20 mins followed by [gamma-33P]ATP addition measured after 120 mins in presence of ATP by Hot-SpotSM kinase assay relative to control; type: protein-complex assay; conditions: time 140.0 min
[11] = biological target: T1, Cyclin-dependent kinase 5/CDK5 activator 1 (Homo sapiens) (UniProt Q00535+Q15078); test: Inhibition of CDK5/p25NCK (unknown origin) at 100 nM preincubated for 20 mins followed by [gamma-33P]ATP addition measured after 120 mins in presence of ATP by Hot-SpotSM kinase assay relative to control; type: protein-complex assay; conditions: time 140.0 min
[12] = biological target: T1, Cyclin-dependent kinase 5/CDK5 activator 1 (Homo sapiens); test: Inhibition of CDK5/p35NCK (unknown origin) at 100 nM preincubated for 20 mins followed by [gamma-33P]ATP addition measured after 120 mins in presence of ATP by Hot-SpotSM kinase assay relative to control; type: protein-complex assay; conditions: time 140.0 min
[13] = biological target: CDK6/cyclin D1 (Homo sapiens) (UniProt P24385+Q00534); test: Inhibition of CDK6/cyclinD1 (unknown origin) at 100 nM preincubated for 20 mins followed by [gamma-33P]ATP addition measured after 120 mins in presence of ATP by Hot-SpotSM kinase assay relative to control; type: protein-complex assay; conditions: time 140.0 min
[14] = biological target: CDK6/cyclin D3 (Homo sapiens) (UniProt P30281+Q00534); test: Inhibition of CDK6/cyclinD3 (unknown origin) at 100 nM preincubated for 20 mins followed by [gamma-33P]ATP addition measured after 120 mins in presence of ATP by Hot-SpotSM kinase assay relative to control; type: protein-complex assay; conditions: time 140.0 min
[15] = biological target: CDK12/Cyclin K (Homo sapiens) (UniProt O75909+Q9NYV4); test: Inhibition of CDK12/cyclinK (unknown origin) at 100 nM preincubated for 20 mins followed by [gamma-33P]ATP addition measured after 120 mins in presence of ATP by Hot-SpotSM kinase assay relative to control; type: protein-complex assay; conditions: time 140.0 min
[16] = biological target: Cyclin-dependent kinase 13/Cyclin-K (Homo sapiens) (UniProt Q14004+O75909); test: Inhibition of CDK13/cyclinK (unknown origin) at 100 nM preincubated for 20 mins followed by [gamma-33P]ATP addition measured after 120 mins in presence of ATP by Hot-SpotSM kinase assay relative to control; type: protein-complex assay; conditions: time 140.0 min
[17] = biological target: Cyclin-C/Cyclin-dependent kinase 19 (Homo sapiens) (UniProt Q9BWU1+P24863); test: Inhibition of CDK19/cyclinC (unknown origin) at 100 nM preincubated for 20 mins followed by [gamma-33P]ATP addition measured after 120 mins in presence of ATP by Hot-SpotSM kinase assay relative to control; type: protein-complex assay; conditions: time 140.0 min

Chain of Cyclin-dependent kinase 9 (P50750 whole entry): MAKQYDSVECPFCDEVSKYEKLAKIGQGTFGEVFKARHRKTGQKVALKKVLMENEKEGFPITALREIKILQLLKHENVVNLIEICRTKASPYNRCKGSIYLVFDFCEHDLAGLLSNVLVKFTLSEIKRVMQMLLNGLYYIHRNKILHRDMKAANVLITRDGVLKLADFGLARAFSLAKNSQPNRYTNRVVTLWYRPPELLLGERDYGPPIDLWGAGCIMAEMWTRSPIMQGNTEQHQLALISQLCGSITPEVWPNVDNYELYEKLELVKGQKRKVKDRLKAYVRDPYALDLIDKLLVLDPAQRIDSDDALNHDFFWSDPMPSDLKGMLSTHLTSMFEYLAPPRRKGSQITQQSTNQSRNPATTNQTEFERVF
T1 sequence (Q00535 whole entry): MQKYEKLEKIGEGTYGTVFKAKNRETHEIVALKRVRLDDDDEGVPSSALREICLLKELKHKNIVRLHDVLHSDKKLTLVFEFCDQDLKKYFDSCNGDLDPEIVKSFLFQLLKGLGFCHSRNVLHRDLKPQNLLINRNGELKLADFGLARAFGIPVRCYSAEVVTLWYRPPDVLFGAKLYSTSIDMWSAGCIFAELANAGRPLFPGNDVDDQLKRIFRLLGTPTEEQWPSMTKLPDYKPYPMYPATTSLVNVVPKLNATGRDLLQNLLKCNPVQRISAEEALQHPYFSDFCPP
T1 sequence (Q15078 99-307 partner limits assumed): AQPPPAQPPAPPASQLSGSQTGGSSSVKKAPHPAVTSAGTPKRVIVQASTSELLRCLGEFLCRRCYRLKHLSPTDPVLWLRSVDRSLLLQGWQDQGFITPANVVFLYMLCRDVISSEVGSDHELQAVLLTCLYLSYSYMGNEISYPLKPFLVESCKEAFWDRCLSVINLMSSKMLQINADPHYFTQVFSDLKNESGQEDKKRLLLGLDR
Chain of Cyclin-dependent kinase 13/Cyclin-K (Homo sapiens) (O75909 whole entry, looked up): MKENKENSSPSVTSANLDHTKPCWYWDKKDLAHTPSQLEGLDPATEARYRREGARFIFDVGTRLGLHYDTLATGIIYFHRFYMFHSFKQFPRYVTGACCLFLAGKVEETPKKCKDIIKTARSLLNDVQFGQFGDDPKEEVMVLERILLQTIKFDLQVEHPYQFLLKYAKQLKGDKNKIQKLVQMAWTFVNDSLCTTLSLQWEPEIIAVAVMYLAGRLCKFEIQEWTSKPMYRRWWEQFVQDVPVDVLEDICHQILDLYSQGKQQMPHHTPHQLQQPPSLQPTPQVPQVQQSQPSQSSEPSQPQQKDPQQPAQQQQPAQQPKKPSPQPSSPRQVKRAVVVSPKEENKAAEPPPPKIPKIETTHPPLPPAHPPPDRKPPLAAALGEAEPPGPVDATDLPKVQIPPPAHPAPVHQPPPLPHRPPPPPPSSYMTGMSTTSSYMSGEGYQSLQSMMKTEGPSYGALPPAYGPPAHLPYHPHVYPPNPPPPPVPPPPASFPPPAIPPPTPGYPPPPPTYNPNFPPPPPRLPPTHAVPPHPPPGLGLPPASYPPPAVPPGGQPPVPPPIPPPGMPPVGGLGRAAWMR
Chain of Cyclin-dependent kinase 13/Cyclin-K (Homo sapiens) (Q14004 whole entry, looked up): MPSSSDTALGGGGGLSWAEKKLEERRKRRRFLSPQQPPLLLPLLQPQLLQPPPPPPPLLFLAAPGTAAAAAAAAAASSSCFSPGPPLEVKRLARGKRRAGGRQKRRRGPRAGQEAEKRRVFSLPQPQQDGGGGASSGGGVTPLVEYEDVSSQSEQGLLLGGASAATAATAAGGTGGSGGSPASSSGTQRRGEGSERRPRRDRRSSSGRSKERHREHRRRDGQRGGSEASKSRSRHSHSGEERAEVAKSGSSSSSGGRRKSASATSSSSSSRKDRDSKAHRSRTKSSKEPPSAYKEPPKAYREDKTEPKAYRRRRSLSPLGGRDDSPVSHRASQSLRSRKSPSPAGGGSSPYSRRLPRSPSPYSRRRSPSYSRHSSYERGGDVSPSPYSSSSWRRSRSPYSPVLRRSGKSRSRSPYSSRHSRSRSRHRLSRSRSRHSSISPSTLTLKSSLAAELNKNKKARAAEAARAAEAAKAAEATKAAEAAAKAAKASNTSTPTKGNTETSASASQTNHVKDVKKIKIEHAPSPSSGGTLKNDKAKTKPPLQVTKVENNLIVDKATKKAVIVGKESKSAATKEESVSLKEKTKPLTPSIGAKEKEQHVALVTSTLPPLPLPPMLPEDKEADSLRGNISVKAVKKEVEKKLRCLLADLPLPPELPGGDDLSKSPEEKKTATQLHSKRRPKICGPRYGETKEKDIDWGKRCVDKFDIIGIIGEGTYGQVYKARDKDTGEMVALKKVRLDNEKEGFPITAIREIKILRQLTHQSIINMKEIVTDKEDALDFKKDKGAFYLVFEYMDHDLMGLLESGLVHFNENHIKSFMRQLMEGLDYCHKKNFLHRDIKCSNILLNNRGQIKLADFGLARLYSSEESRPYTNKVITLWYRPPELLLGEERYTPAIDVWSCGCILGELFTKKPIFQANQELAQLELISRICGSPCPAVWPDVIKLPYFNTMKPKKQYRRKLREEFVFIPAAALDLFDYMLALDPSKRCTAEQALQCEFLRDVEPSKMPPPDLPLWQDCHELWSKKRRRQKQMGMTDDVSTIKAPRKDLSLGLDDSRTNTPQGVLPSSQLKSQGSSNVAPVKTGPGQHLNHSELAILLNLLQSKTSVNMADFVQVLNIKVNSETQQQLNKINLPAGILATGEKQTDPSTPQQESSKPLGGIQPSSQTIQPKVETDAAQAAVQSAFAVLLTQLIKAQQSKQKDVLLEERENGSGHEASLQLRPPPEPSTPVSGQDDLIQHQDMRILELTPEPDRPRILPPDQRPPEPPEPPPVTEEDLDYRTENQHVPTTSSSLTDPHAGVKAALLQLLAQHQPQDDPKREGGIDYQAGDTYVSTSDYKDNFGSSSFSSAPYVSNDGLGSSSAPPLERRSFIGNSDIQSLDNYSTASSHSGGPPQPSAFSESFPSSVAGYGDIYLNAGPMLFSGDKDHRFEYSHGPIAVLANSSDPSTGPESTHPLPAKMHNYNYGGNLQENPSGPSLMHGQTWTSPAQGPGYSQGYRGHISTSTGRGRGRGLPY
Chain of CDK12/Cyclin K (Homo sapiens) (O75909 whole entry, looked up): as the sequence (O75909 whole entry, looked up) above
Chain of CDK12/Cyclin K (Homo sapiens) (Q9NYV4 whole entry, looked up): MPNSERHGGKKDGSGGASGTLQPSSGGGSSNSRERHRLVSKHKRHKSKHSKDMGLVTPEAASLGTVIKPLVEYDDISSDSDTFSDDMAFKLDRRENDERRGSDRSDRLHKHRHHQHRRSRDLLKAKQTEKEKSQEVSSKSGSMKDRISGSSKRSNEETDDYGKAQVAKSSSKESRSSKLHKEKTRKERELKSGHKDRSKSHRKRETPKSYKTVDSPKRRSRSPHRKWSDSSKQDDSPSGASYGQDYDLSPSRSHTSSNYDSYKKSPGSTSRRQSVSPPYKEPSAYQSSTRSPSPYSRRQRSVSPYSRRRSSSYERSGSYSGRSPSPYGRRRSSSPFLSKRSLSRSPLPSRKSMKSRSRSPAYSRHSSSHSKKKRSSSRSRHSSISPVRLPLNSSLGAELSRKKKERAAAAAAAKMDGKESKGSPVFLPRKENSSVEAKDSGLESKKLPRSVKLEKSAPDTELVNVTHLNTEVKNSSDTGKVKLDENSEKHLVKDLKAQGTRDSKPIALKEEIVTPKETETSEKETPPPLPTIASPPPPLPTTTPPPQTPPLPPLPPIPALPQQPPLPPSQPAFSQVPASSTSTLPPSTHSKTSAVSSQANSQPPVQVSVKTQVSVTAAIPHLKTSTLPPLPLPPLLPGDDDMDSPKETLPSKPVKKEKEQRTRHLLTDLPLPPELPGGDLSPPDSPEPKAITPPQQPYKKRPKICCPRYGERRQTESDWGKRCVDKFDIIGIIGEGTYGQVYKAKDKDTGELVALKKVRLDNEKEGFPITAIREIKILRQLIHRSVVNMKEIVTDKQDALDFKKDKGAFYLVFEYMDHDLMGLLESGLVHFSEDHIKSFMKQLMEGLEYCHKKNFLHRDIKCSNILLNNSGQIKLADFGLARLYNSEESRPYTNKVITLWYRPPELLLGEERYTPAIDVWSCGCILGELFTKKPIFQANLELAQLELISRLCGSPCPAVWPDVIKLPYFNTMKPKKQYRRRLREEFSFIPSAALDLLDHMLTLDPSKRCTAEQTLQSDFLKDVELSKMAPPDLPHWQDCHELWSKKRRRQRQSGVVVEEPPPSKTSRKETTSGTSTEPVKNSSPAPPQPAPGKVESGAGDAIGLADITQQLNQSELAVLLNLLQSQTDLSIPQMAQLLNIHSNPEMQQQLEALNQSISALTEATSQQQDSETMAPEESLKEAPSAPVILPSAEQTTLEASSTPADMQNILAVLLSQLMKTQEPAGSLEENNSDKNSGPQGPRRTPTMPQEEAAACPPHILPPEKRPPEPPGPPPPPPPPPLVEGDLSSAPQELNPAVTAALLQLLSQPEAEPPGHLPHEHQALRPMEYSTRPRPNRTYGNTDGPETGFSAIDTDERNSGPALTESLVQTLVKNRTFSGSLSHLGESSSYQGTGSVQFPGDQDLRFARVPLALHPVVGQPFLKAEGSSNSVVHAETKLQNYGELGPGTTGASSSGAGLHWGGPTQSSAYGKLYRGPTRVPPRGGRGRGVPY

Structure (SMILES) | pIC50 [1] | pIC50 (U-937) | pIC50 (HL-60) | pIC50 [2] | pIC50 (Kasumi 1 [3]) | also measured
O=C(CCCCCCN1CCC(NC(=O)c2n[nH]cc2NC(=O)c2c(Cl)cccc2Cl)CC1)NO | > 7.00 | 6.33 | 5.96 | 5.51 | 5.19 | IC50 (Histone deacetylase): < 1 µM
O=C(CN1CCC(NC(=O)c2n[nH]cc2NC(=O)c2c(Cl)cccc2Cl)CC1)NO | > 7.00 | 6.03 | 5.94 | 5.81 | 5.81 | 
Nc1cc(Br)c(Br)cc1NC(=O)c1ccc(NC(=O)c2n[nH]cc2NC(=O)c2c(Cl)cccc2Cl)cc1 | > 7.00 | 5.04 | 5.16 | 5.34 | 5.16 | 
O=C(NC1CCNCC1)c1n[nH]cc1NC(=O)c1c(Cl)cccc1Cl [AT-7519] |  | 5.94 | 5.63 | 5.91 | 5.83 | CI (Kasumi 1 [4]): <1; inhibition [5]: 24%; inhibition [6]: 39.3%; inhibition [7]: 31.4%; inhibition [8]: 26.5%; inhibition [9]: 68.7%; inhibition [10]: 74.6%; inhibition [11]: 76.9%; inhibition [12]: 62.5%; inhibition [13]: 56.8%; inhibition [14]: 33.2%; inhibition [15]: 85%; inhibition [16]: 87%; inhibition [17]: 6.49%
O=C(CCCCN1CCC(NC(=O)c2n[nH]cc2NC(=O)c2c(Cl)cccc2Cl)CC1)NO | > 7.00 | 5.74 | 5.96 | 5.63 | 5.43 | 
O=C(CCCCCN1CCC(NC(=O)c2n[nH]cc2NC(=O)c2c(Cl)cccc2Cl)CC1)NO | > 7.00 | 5.74 | 5.76 | 5.52 | 5.21 | 
O=C(CCCCCNC(=O)c1ccc(NC(=O)c2n[nH]cc2NC(=O)c2c(Cl)cccc2Cl)cc1)NO | > 7.00 | < 5.00 | < 5.00 | < 5.00 | < 5.00 | 
O=C(CCCN1CCC(NC(=O)c2n[nH]cc2NC(=O)c2c(F)cccc2F)CC1)NO | > 7.00 | < 5.00 | 5.59 | 5.20 | < 5.00 | 
O=C(CCN1CCC(NC(=O)c2n[nH]cc2NC(=O)c2c(F)cccc2F)CC1)NO | > 7.00 | < 5.00 | 5.35 | 5.03 | 5.32 | 
O=C(CCCCNC(=O)c1n[nH]cc1NC(=O)c1c(Cl)cccc1Cl)NO | > 7.00 | < 5.00 | < 5.00 | < 5.00 | < 5.00 | 

The next lines start with results.

pIC50 [1] | pIC50 (U-937) | pIC50 (HL-60) | Structure (SMILES) | pIC50 [2] | pIC50 (Kasumi 1 [3]) | also measured
> 7.00 | < 5.00 | < 5.00 | O=C(CCCCCNC(=O)c1ccc(NC(=O)c2n[nH]cc2NC(=O)c2c(F)cccc2F)cc1)NO | < 5.00 | < 5.00 | 
> 7.00 | < 5.00 | < 5.00 | O=C(CCCCNC(=O)c1ccc(NC(=O)c2n[nH]cc2NC(=O)c2c(F)cccc2F)cc1)NO | < 5.00 | < 5.00 | 
> 7.00 | < 5.00 | < 5.00 | O=C(CNC(=O)c1n[nH]cc1NC(=O)c1c(Cl)cccc1Cl)NO | < 5.00 | < 5.00 | 
> 7.00 | < 5.00 | 5.00 | O=C(CCNC(=O)c1n[nH]cc1NC(=O)c1c(Cl)cccc1Cl)NO | < 5.00 | 5.41 | 
> 7.00 | < 5.00 | < 5.00 | O=C(CCCCCNC(=O)c1n[nH]cc1NC(=O)c1c(Cl)cccc1Cl)NO | < 5.00 | < 5.00 | 
